Our source for the LC70 values is ChEMBL document CHEMBL3044941, “Synthesis and Structure-Activity Relationships of Dinotefuran Derivatives: Modification in the Tetrahydro-3-furylmethyl Part” (2004).

Assay [1] deals with Laodelphax striatellus. Briefly: Insecticidal activity against 1 to 3 day-old adult Laodelphax striatella (small brown planthopper) infested compound-treated rice seedlings assessed as mortality measured after 3 days. Type of assay: functional.
The test system of assay [2] is Nephotettix cincticeps. Briefly: Insecticidal activity against 1 to 3 day-old adult Nephotettix cincticeps (green rice leafhopper) infested in compound-treated rice seedlings assessed as mortality measured after 3 days. Type of assay: functional.

Molecules are shown by their SMILES. Some results are limits rather than exact numbers.

On to `CN/C(=N\[N+](=O)[O-])NCC1(C)COCC1C` (mixture of isomers), for which the LC70 in assay [1] and in assay [2] was greater than 1000 ppm each time.
Turning to `CN/C(=C\[N+](=O)[O-])NCC1CCOC1OC` (mixture of isomers), the LC70 in assay [1] and in assay [2] was greater than 1000 ppm in each case.
With `CC1CC(CN2CCCN/C2=C\[N+](=O)[O-])CO1` (mixture of isomers), the LC70 in assay [1] and in assay [2] was 1 ppm throughout.
As to `CN/C(=C\[N+](=O)[O-])NCC1COCC1C` (mixture of isomers), the LC70 in assay [1] and in assay [2] was 1 ppm throughout.
As to `CC1(C)CC(CN2CCCN/C2=C\[N+](=O)[O-])CO1` (configuration not stated), the LC70 in assay [1] and in assay [2] was 1 ppm throughout.
Consider `CN/C(=N\[N+](=O)[O-])NCC1CCOC1OC` (mixture of isomers), for which the LC70 in assay [1] and in assay [2] was greater than 1000 ppm throughout.
As to `CN/C(=C\[N+](=O)[O-])NCC1COC(C)C1` (mixture of isomers), the LC70 in assay [1] was 10 ppm; in assay [2], 1 ppm.
Turning to `CN/C(=C\[N+](=O)[O-])NCC1COC(C)(C)C1` (configuration not stated), the LC70 in assay [1] was determined as 10 ppm; in assay [2], 1 ppm.
Take `O=[N+]([O-])/N=C1\NCCCN1CC1CCOC1` (configuration not stated): the LC70 came out at 1 ppm in assay [1] and 0.1 ppm in assay [2].
Taken in the same sequence, the figures for `CN/C(=N/CC1CCOC1)N[N+](=O)[O-]` (configuration not stated) [DINOTEFURAN] were 0.1 ppm and 0.1 ppm.
For `CCC1COCC1CN/C(=C/[N+](=O)[O-])NC` (mixture of isomers) the same measures were greater than 1000 ppm and 100 ppm.
Regarding `CC1CC(CN2CCCN/C2=N\[N+](=O)[O-])CO1` (mixture of isomers), the values for the LC70 in assay [1] and in assay [2] were 1 ppm and 0.1 ppm, respectively.
For `CN/C(=N\[N+](=O)[O-])NCC1(C)CCOC1` (configuration not stated) the same measures were greater than 1000 ppm and greater than 1000 ppm.
Taken in the same sequence, the figures for `CN/C(=N\[N+](=O)[O-])NCC1COC(c2ccccc2)C1` (mixture of isomers) were greater than 1000 ppm and greater than 1000 ppm.
Taken in the same sequence, the figures for `CN/C(=C\[N+](=O)[O-])NCC1CCOC1C` (mixture of isomers) were greater than 1000 ppm and greater than 1000 ppm.
Take `CN/C(=N\[N+](=O)[O-])NCC1COCC1C` (mixture of isomers): the LC70 in assay [1] was determined as 10 ppm; in assay [2], 1 ppm.
As for `CN/C(=N\[N+](=O)[O-])NCC1COC(C)C1` (mixture of isomers), the results for the LC70 in assay [1] and in assay [2] were 10 ppm and 1 ppm, respectively.
`CN/C(=N\[N+](=O)[O-])NCC1CCOC1C` (configuration not stated): the LC70 in assay [1] and in assay [2] was greater than 1000 ppm in each case.
On to `CC1(C)CC(CN2CCCN/C2=N\[N+](=O)[O-])CO1` (configuration not stated), for which the results for the LC70 in assay [1] and in assay [2] were 10 ppm and 1 ppm, respectively.
Taken in the same sequence, the figures for `O=[N+]([O-])/C=C1\NCCCN1CC1CCOC1` (configuration not stated) were 1 ppm and 0.1 ppm.
For `CCC1COCC1CN1CCCN/C1=C\[N+](=O)[O-]` (mixture of isomers) the same measures were 100 ppm and greater than 1000 ppm.
Regarding `CC1COCC1CN1CCCN/C1=C\[N+](=O)[O-]` (mixture of isomers), the LC70 in assay [1] amounted to 1 ppm; in assay [2], 0.1 ppm.
For `CN/C(=N\[N+](=O)[O-])NCC1COC(C)(C)C1` (configuration not stated) the same measures were 100 ppm and 1 ppm.
For `CC1COCC1CN1CCCN/C1=N\[N+](=O)[O-]` (mixture of isomers) the same measures were 10 ppm and 0.1 ppm.
For `CN/C(=C\[N+](=O)[O-])NCC1CCOC1` (configuration not stated), the LC70 in assay [1] and in assay [2] was 0.1 ppm each time.
For the molecule `CCC1COCC1CN/C(=N/[N+](=O)[O-])NC` (mixture of isomers), the LC70 in assay [1] was greater than 1000 ppm; in assay [2], 100 ppm.
